# T1: protease performing the cleavage of synthetic human CCK-33 to CCK-22 (metalloprotease, identified as Cym1p) (Saccharomyces cerevisiae, UniProt P32898)
# T1 construct: endogenous in cells; host or cells: S. cerevisiae strain LJY123 (APE1, APE2, APE3 deleted; derived from Y14953), clarified crude cell extract
# T1 sequence (P32898 17-989): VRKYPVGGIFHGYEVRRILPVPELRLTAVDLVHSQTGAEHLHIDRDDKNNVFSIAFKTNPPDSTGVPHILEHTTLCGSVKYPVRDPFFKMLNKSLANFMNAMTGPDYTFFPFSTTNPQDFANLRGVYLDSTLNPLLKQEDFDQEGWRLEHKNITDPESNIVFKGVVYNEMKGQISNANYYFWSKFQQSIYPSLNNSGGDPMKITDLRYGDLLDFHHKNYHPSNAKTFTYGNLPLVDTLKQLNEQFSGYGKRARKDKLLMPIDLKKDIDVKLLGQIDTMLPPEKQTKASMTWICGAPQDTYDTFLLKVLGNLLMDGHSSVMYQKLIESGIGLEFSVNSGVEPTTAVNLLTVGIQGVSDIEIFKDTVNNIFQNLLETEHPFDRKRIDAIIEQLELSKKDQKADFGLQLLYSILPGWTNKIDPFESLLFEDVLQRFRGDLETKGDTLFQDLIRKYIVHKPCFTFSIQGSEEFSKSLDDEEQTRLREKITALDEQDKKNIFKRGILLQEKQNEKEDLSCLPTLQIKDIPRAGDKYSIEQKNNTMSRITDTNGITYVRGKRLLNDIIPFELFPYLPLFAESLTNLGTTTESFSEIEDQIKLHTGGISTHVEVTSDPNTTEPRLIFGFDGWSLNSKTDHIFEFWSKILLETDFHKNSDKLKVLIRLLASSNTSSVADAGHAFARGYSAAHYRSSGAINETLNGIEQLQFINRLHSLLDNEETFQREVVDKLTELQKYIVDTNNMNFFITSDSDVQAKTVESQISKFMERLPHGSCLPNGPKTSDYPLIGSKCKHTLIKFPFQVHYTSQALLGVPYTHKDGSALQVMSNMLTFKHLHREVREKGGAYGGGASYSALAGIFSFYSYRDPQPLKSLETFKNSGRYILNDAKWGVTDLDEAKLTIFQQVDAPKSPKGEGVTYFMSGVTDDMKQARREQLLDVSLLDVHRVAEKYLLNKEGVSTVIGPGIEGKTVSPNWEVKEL
# T2: Ac-CCK-33-Gly, P06307
# T2 chain: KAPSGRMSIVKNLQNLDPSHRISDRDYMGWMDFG
# Tests used:
# [1] = molecular target: T1, protease performing the cleavage of synthetic human CCK-33 to CCK-22 (metalloprotease, identified as Cym1p); test: In vitro protease assay: cleavage of synthetic CCK-33 to CCK-22 by crude yeast cell extract (LJY123); type: biochemical; details: extract from LJY123; 1 mM EDTA, 1 mM 1,10-orthophenanthroline; 30° C., 1 h
# Procedure: FIG. 4. In vitro protease assay including inhibitors and activators. The fraction of CCK-22 was calculated from the immuno-reactivity using Ab 89009 divided by the total amount of mature and N-terminal extended CCK-22 measured with Ab 89009 after trypsin treatment. A, Effect of different inhibitors. B, Protease reactivation by addition of 1.2 mM divalent metal ions to extracts where the activity had been inhibited with 1 mM EDTA. The data represent mean±SD of three independent experiments.
# FIG. 5. Protease reactivation by Zn^2+ and Mn^2+. […] The activity was measured as the fraction of matured CCK-22 after 30, 60 and 120 min incubation. The fraction of CCK-22 was calculated from the immuno-reactivity using Ab 89009 divided by the total amount of mature and N-terminal extended CCK-22 measured with Ab 89009 after trypsin treatment. […]
# Two different antisera were used to determine the amount of processed cholecystokinin. […] The fraction of CCK processed to CCK-22 is calculated by division of the immuno-reactivity measured with Ab 89009 with the amount measured with the same antibody after the sample was treated with trypsin to measure the total amount of N-terminal extended CCK-22. […]
# The nature of the protease performing the cleavage of synthetic human CCK-33 to CCK-22 was analysed by inclusion of a number of different inhibitors with the extract from LJY123. […]
# Ac-CCK-33-Gly, P06307 = molecular target: T2, Ac-CCK-33-Gly, P06307
inhibition of proteolysis of CCK-33 to CCK-22 [1],Molecule,"rate of CCK-22 production in the in vitro protease assay (Ac-CCK-33-Gly, P06307)"
inhibited,"c1cnc2c(c1)ccc1cccnc12 [1,10 ortho-phenanthroline]",
inhibited,O=C(O)CN(CCN(CC(=O)O)CC(=O)O)CC(=O)O [EDTA],
,Saccharomyces cerevisiae Cym1p (protein) VRKYPVGGIFHGYEVRRILPVPELRLTAVDLVHSQTGAEHLHIDRDDKNNVFSIAFKTNPPDSTGVPHILEHTTLCGSVKYPVRDPFFKMLNKSLANFMNAMTGPDYTFFPFSTTNPQDFANLRGVYLDSTLNPLLKQEDFDQEGWRLEHKNITDPESNIVFKGVVYNEMKGQISNANYYFWSKFQQSIYPSLNNSGGDPMKITDLRYGDLLDFHHKNYHPSNAKTFTYGNLPLVDTLKQLNEQFSGYGKRARKDKLLMPIDLKKDIDVKLLGQIDTMLPPEKQTKASMTWICGAPQDTYDTFLLKVLGNLLMDGHSSVMYQKLIESGIGLEFSVNSGVEPTTAVNLLTVGIQGVSDIEIFKDTVNNIFQNLLETEHPFDRKRIDAIIEQLELSKKDQKADFGLQLLYSILPGWTNKIDPFESLLFEDVLQRFRGDLETKGDTLFQDLIRKYIVHKPCFTFSIQGSEEFSKSLDDEEQTRLREKITALDEQDKKNIFKRGILLQEKQNEKEDLSCLPTLQIKDIPRAGDKYSIEQKNNTMSRITDTNGITYVRGKRLLNDIIPFELFPYLPLFAESLTNLGTTTESFSEIEDQIKLHTGGISTHVEVTSDPNTTEPRLIFGFDGWSLNSKTDHIFEFWSKILLETDFHKNSDKLKVLIRLLASSNTSSVADAGHAFARGYSAAHYRSSGAINETLNGIEQLQFINRLHSLLDNEETFQREVVDKLTELQKYIVDTNNMNFFITSDSDVQAKTVESQISKFMERLPHGSCLPNGPKTSDYPLIGSKCKHTLIKFPFQVHYTSQALLGVPYTHKDGSALQVMSNMLTFKHLHREVREKGGAYGGGASYSALAGIFSFYSYRDPQPLKSLETFKNSGRYILNDAKWGVTDLDEAKLTIFQQVDAPKSPKGEGVTYFMSGVTDDMKQARREQLLDVSLLDVHRVAEKYLLNKEGVSTVIGPGIEGKTVSPNWEVKEL,Expression of CYM1 on a multicopy plasmid enhanced the rate of CCK-22 production several fold

# Source: patent publication US20060121565A1, “Methods for increasing the production of a recombinant polypeptide from a host cell” (CYMIP A/S, priority 2002, published 2006)
